Measured values: patent US6949250B2, “Selective algaecides for control of cyanochloronta” (The United States of America as represented by the …, priority 2002, dated 2005)

Columns and labels:
[1] = system: chlorophyll a; test: DNA1-19-1 second and third pond efficacy studies: chlorophyll a; format: in vivo; conditions: second and third efficacy study; 1, 0.3, and 0.1 μM
Experimental: (§1) The method described by Schrader et al. (2000) was used to determine the potential for using the anthraquinone derivatives as selective algicides in catfish aquaculture ponds. All catfish ponds used in efficacy tests were maintained using commercial pond management practices and were located at the Thad Cochran Pond Facility, Mississippi State University, Stoneville, Miss. Anthraquinone analogs were dissolved in deionized water before application to water within the limnocorrals.
(§2) Limnocorrals in which test compound was applied to the enclosed water were randomly selected, and control (no test compound applied) limnocorrals were included in each efficacy study. For each sampling, two water samples (250 mL) were obtained from within each limnocorral (approximately 6-8 cm below the water surface and from opposite sides of each limnocorral) and mixed together in a 500 mL sample bottle to provide a representative sample of the water contained within the limnocorral.
In the second study with DNA1-19-1, twelve limnocorrals that were the same size as those used in the first study were placed in another 4-ha earthen catfish pond. […] The sampling regime and procedures used in the first study were followed in a similar manner, except that water samples were obtained before DNA1-19-1 application, 16 hours after application, and at days 2, 4, and 7. […]

[2] = system: 2-methylisoborneol; test: DNA2-59-1 first pond efficacy study: MIB levels; format: in vivo; conditions: 0.3 and 1 μM
Experimental: as §1
Limnocorrals in which test compound was applied to the enclosed water were randomly selected, and control (no test compound applied) limnocorrals were included in each efficacy study. […]
In the first study, application rates of 0.1 μM (37.7 μg/L), 0.3 μM ([…]), and 1.0 μM (377 μg/L) of DNA2-59-1 were tested using limnocorrals (three replicates per concentration) that were of the same type used for testing DNA1-19-1. […] Water samples were also analyzed to determine the persistence of DNA2-59-1 in the pond water, and this analysis was performed by using high-pressure liquid chromatography (HPLC) (method and results are described later).

[3] = system: Raphidiopsis brookii; test: DNA2-59-1 third pond efficacy study: Raphidiopsis brookii abundance; format: in vivo; conditions: 0.3 μM, one day after application
Experimental: as §1, §2
(§3) For the third efficacy test with DNA2-59-1, twelve limnocorrals (2.44 m in diameter and 1.53 m high) were placed in a 4-ha earthen pond containing a bloom of O. perornata. […]

[4] = DNA2-59-1 third efficacy study: dissipation rate and half-life in pond water (HPLC); format: physicochemical; conditions: for DNA2-59-1 Levels in Pond Water: third study, 0.3 μM applied
Experimental: For the third efficacy test with DNA2-59-1, twelve limnocorrals (2.44 m in diameter and 1.53 m high) were placed in a 4-ha earthen pond containing a bloom of O. perornata. The same procedures, application rate (0.3 μM), and methods used in the second efficacy test of DNA2-59-1 were used except six limnocorrals were randomly selected to receive an application rate of 0.3 μM DNA2-59-1 while the other six limnocorrals were controls. Water samples were collected before application of DNA2-59-1, 20 minutes after application, and at days 1, 2, 3, 4, and 7. The same tests and methods used in the first efficacy testing of DNA2-59-1 were used.
Approximately 15 mL each of water samples from DNA2-59-1 efficacy testing that were designated for HPLC analysis were placed in scintillation vials and held in a freezer. Water samples were later melted at room temperature, and 5 mL of each sample was then filtered through a nylon membrane filter (13 mm diameter and 0.45 μm; Whatman International, Maidstone, England) using a 5 mL syringe (Hamilton Company, Reno, Nev.) and a 13 mm syringe filter holder (Fisher Scientific Company, Pittsburgh, Pa.). Filtrate (1 mL) was placed in 2 mL vials and capped using teflon/rubber septum caps (National Scientific Company, Jeddah, Saudia Arabia). The filter paper was removed and placed in a scintillation vial to which 2 mL of HPLC grade methanol (Fisher Scientific, Fair Lawn, N.J.) was added and then sonicated for 5 minutes. The methanol solution was then filtered using a nylon membrane acrodisc (25 mm and 0.45 μm; Pall Life Sciences, Ann Arbor, Mich.), and the methanol filtrate was placed in separate 2 mL vials.
Filtrate samples were analyzed using a Waters 2690 Alliance HPLC containing a 996 PDA detector and a XTerra RP 18 column (150 mm×4.6 mm, 5 μm particle size; Waters Corporation, Milford, Mass.). The mobile phase consisted of 25 mM sodium dihydrogenphosphate in 0.1% phosphoric acid (A) and acetonitrile (B). The gradient was from 80A/20B in 15 minutes to 40A/60B. After each run, a 5 minute wash with methanol was performed, followed by equilibrating the column for 10 minutes with 80A/20B. The temperature was set at 40° C., the flow rate was 1 mL/minute, the detection wavelength 256 nm, and the sample injection volume was 10 μL. All solvents used were HPLC grade (Fisher Scientific, Fair Lawn, N.J.).
Means and standard deviations of data were determined and graphed. The graphs were used to help determine the half-life of DNA2-59-1 in the pond water. Because of the short duration of the first efficacy study, the half-life of DNA2-59-1 in the pond water could not be determined.

[5] = system: chlorophyll a; test: DNA2-59-1 third pond efficacy study: chlorophyll a; format: in vivo; conditions: 0.3 μM, 24 hours after application
Experimental: as §1, §2, §3

[6] = system: Oscillatoria geminata; test: DNA2-59-1 second pond efficacy study: Oscillatoria geminata abundance; format: in vivo; conditions: 0.3 μM
Experimental: as §1, §2
In the second efficacy test with DNA2-59-1, six limnocorrals (1.53 m in diameter and 1.53 m high) were placed in a 0.1-ha earthen pond containing a heavy bloom of O. perornata. The same delay in mixing the water within the limnocorrals used in the first efficacy study was utilized. Water within three randomly selected limnocorrals received an application rate of 0.3 μM DNA2-59-1, and the other three limnocorrals were controls. […]

CCN(CC)CCCC(C)NCc1ccc2c(c1)C(=O)c1ccccc1C2=O.O=P(O)(O)O.O=P(O)(O)O (centres unmarked) [DNA1-19-1, 2-[methylamino-N-(1′-methyl-4′-N,N-diethylaminobutyl)]-9,10-anthraquinone diphosphate]
chlorophyll a levels compared to controls (result in words) [1]: lack of reduction

CC(C)NCc1ccc2c(c1)C(=O)c1ccccc1C2=O [DNA2-59-1, 2-[methylamino-N-(1′-methylethyl)]-9,10-anthraquinone monophosphate]
decrease of MIB levels compared to controls and 0.1 μM (result in words) [2]: to a greater degree and significantly more
Numbers of Raphidiopsis brookii (result in words) [3]: significantly reduced
half-life at 0.3 μM ([4]; pond water in limnocorrals (earthen catfish pond), third efficacy study): 1140 min
DNA2-59-1 Levels in Pond Water ([4]; 0 hours): 90.6 ± 7.9 µg/L
DNA2-59-1 Levels in Pond Water ([4]; 24 hours): 31.5 ± 4.4 µg/L
DNA2-59-1 Levels in Pond Water ([4]; 48 hours): 9.2 ± 3.2 µg/L
DNA2-59-1 Levels in Pond Water ([4]; 72 hours): 2.2 ± 0.5 µg/L
DNA2-59-1 Levels in Pond Water ([4]; 96 hours): 0 µg/L
Chlorophyll a levels (result in words) [5]: significantly reduced
Numbers of Oscillatoria geminata (result in words) [6]: reduced by application of 0.3 μM DNA2-59-1, though not significantly
